Reference: patent publication US20050192279A1, “Pyridazinones as antagonists of alpha4 integrins” (priority 2004, published 2005)

Legend:
[1] = tested on: eosinophil peroxidase levels in ear punches; assay: PMA-Induced Inflammation in Mouse Ear Skin and Measurement of Eosinophil Peroxidase; assay type: in vivo, BALB/C mice; conditions: total dose 40 mg/kg po bid; ear punches 24 h after PMA
Description: Phorbol 12-Myristate 13-Acetate (PMA)-Induced Inflammation in Mouse Ear Skin and Measurement of Eosinophil Peroxidase
Phorbol 12-myristate 13-acetate (PMA) when applied to skin, generates a vigorous recruitment of immune cells to the site of application. Over a 24 hour period, there is accumulation of fluid and cells to the inflamed site, and thus is a general indicator of an inflammatory response. Among the recruited cells are eosinophils and neutrophils. Eosinophils can migrate into an inflamed or infected tissue via alpha 4 beta 1 integrin interactions with vascular cell adesion molecule-1 (VCAM-1) counter-receptors on vascular endothelial cells, and via alpha 4 beta 7 integrin to mucosal addressin cellular adhesion molecule on vascular endothelial cells in the gastrointestinal tract and mesenteric system. The recruited esoinophils can be quantified by measuring the presence of eosinophil peroxidase in a sample of the homogenized tissue.
Female BALB/C mice are ordered at 6 weeks of age and 16-18 grams from Charles River were used between 6-10 weeks of age. The animals were randomly assigned to groups of 10 (5/box) and housed in groups in plastic cages in a room with 12 h light-dark cycle and controlled temperature and humidity. They received food and water ad libitum.
Phorbol 12-myristate 13-acetate (PMA) was dissolved as 5 mg per mL stock in dimethyl sulfoxide (DMSO) and stored frozen as 20 microliter aliquots. For application to mouse ears, each aliquot was diluted in 2 mL with acetone.
The right ear of each mouse was treated topically with 20 microliters of acetone solution (10 microliters to each side of the ear) containing either 1 microgram of phorbol 12-myristate 13-acetate (PMA) or acetone alone.
Drugs that were tested orally were administered at −1 and +3 hours relative to PMA application.
Mice were sacrificed 24 h after PMA application. The right ear was punched with a 6 mm tissue punch and the tissue was placed in a tube on dry ice and kept frozen until extraction.
One tablet of phosphate citrate buffer was dissolved with urea hydrogen peroxide in 100 ml of water in which one tablet containing 60 mg of o-phenylenediaminedihydrochloride was added.
Ear tissue samples were homogenized in 2 ml of HTAB for 15 sec at speed 5.5 with a Polytron (large head) (Brinkman Instruments). The homogenate was stored at −20° C. until assayed. […]
Samples were typically tested at either a 1:2 or 1:4 dilution made with HTAB. […] Absorbance was read at 490 nm for the specific with subtraction of a 650 nm noise signal using a Thermomax 96-well spectrophotmetric plate reader (Molecular Devices). […]
The inhibition of PMA-induced ear edema was measured by eosinophil peroxidase levels in ear punches. […]

[2] = tested on: circulating leukocytes; assay: In Vivo Model for Leukocytosis; design: species or system Balb/c mice; conditions: bled 1-1.5 h after administration
From the text: In Vivo Model for Leukocytosis
Leukocytosis is the increase in circulating white blood cells (leukocytes). This can be brought about by preventing leukocyte binding to counter-receptor adhesion molecules expressed on high endothelial venules. This cell adhesion occurs between immunoglobulin superfamily molecules and integrins. Relevant examples of these paired interactions include […] Adhesion Molecule-1 and AlphaL Beta2 integrin, Vascular Cell Adhesion Molecule-1 and α4β1 integrin, and Mucosal Addressin Cell Adhesion Molecule-1 and α4β7 integrin, respectively.
In this model, a compound that antagonizes these leukocyte-endothelial interactions will cause an increase in circulating leukocytes, defined as leukocytosis, as measured at 1-1.5 h post-administration. This leukocytosis is indicative that normal lymphocyte or leukocyte emigration from the peripheral circulation was prevented. Similar emigration of cells out of the circulation into inflamed tissues is responsible for the progression and maintainance of the inflammatory state. Leukocytosis is an indication that lymphocyte and leukocyte extravasation is prevented, and is predictive of general anti-inflammatory activity.
One week prior to being tested, 7-10 week old female Balb/c mice, n=8 per group, were bled and randomized according to leukocyte counts. One week later, the mice were adminstered test compound orally or subcutaneously and then bled 1-1.5 h after drug administration, approximately 1 h after the peak blood concentration of the compound occurred. Whole blood, 250-350 microliters, was collected from each mouse into potassium-EDTA serum collection tubes (Becton-Dickenson) and mixed to prevent clotting.
Cell counts and differential counts on the whole blood preparation were performed using an Advia 120 Hematology System (Bayer Diagnostics). Cell counts as total leukocytes and as total lympohcytes were made and compared to counts made from mice dosed with vehicle only. Data were reported as percent of vehicle control for lymphocyte counts and total leukocyte counts.
Statistical analyses were performed using ANOVA with Dunnet's multiple comparison test.

SMILES	% Inh. of Eosinophil Peroxidase [1] [%]	Lymphoycte Counts % of Vehicle Control ([2]; 3 mg/kg sc) [%]	Total Leukocyte Count % of Vehicle Control ([2]; 3 mg/kg sc) [%]	Lymphoycte Counts % of Vehicle Control ([2]; 10 mg/kg sc) [%]	Total Leukocyte Count % of Vehicle Control ([2]; 10 mg/kg sc) [%]	Lymphoycte Counts % of Vehicle Control ([2]; 30 mg/kg sc) [%]	Total Leukocyte Count % of Vehicle Control ([2]; 30 mg/kg sc) [%]
COc1cnn(C)c(=O)c1-c1ccc(C[C@H](NC(=O)[C@@H]2C3CCC(CC3)N2C(=O)CCc2ccccc2)C(=O)O)cc1 [Cpd 89, 3-[4-(5-Methoxy-2-methyl-3-oxo-2,3-dihydro-pyridazin-4-yl)-phenyl]-2(S)-{[2-(3-phenyl-propionyl)-2-aza-bicyclo[2.2.2]octane-3(S)-carbonyl]-amino}-propionic acid]	43.5						
COC(=O)[C@H](Cc1ccc(-c2c(OC)cnn(C)c2=O)cc1)NC(=O)c1c(Cl)cccc1Cl [Cpd 151]	26.5						
COc1cnn(C)c(=O)c1-c1ccc(C[C@H](NC(=O)c2c(Cl)cccc2Cl)C(=O)O)cc1 [Cpd 17]	34.9	145.3	143.3	191.7	198.7	220.2	264.5
COc1cnn(CCO)c(=O)c1-c1ccc(C[C@H](NC(=O)OC(C)(C)C)C(=O)O)cc1 [Cpd 120]		104.3	91.8	112.8	101.7	80.0	78.0
